This is an account of results in patent publication US20170189444A1, “POLYMERIC COMPOSITIONS AND RELATED SYSTEMS AND METHODS FOR REGULATING BIOLOGICAL HYDROGELS” (CALIFORNIA INSTITUTE OF TECHNOLOGY, priority 2016, published 2017).

In test [1] the test system is colonic mucus hydrogel. Description: Ex vivo polymer-induced compression of washed colonic mucus hydrogel (1 μm microparticle method). Also on record: species or system mice. The settings on record: 500 mM acetate. The source says:
Each mouse was euthanized; the colon was removed and immediately flushed gently with ice-cold 1× PBS, and placed ˜1 cm long segments of the mid-colon in ice-cold PBS. […] The hydrogel thickness was detected through imaging of the washed tissue. […] This ensured that the microparticles deposited onto the mucus hydrogel surface. both the epithelium and the deposited microparticles were simultaneously imaged using confocal or two-photon reflectance microscopy. After measuring the initial washed mucus thickness, ˜0.2-2mL of the test polymer solution was gently deposited onto the exposed luminal surface and then collected the same 3D stacks at the same xy fields of view To measure the “percent compression”, or the overall percentage change in the thickness, of the colonic mucus after exposure to the polymer solution, the thickness was measured before and after exposure to the solution at the same five xy positions, using the distance between the epithelial surface and the deposited microparticles in the 3D stacks. To calculate the percentage compression, the percentage change in the thickness measured was calculated, as well as the measurement uncertainty (using the optical slice thickness as the experimental uncertainty in the measured thickness), at each of these five xy positions. The percentage compression was calculated as the mean of these five measured values. […]

In test [2] the test system is colonic mucus hydrogel. Description: Ex vivo penetration or exclusion of probes and polymers in adherent colonic mucus hydrogel. Also on record: species or system mice. Conditions: washed explant, incubated 1-2 h at 4° C.

Regarding `CC(=O)O` [acetate], the mucus compression entry with colonic mucus hydrogel [1] was “≈ 10%”. Regarding “Methoxyl polyethylene glycol-FITC [mPEG-FITC 200k]”, the “penetration into or exclusion from adherent mucus hydrogel” value with colonic mucus hydrogel [2] is on record as “Penetration of mucus”; in the test on colonic mucus hydrogel [2] (listed as Fluorescent PEG 200 kDa) it was “penetrate the hydrogel”. With “FITC-dextran [fluorescent dextran 2 MDa]”, the “penetration into or exclusion from adherent mucus hydrogel” value in the test with colonic mucus hydrogel [2] is on record as “penetrate the hydrogel”.
